Source: patent US7262177B2, “Conjugates of glycosylated/galactosylated peptide, bifunctional linker, and nucleotidic monomers/polymers, and related compositions and methods of use” (priority 2000, dated 2007)
Where two headings read alike, the source gives them in different places. Blank lines part the entries; values can stand above or below the molecule they belong to.

How the values were obtained:
[1] = target: T1, thymidylate synthetase (TS) (Mus musculus, UniProt P07607); test: Thymidylate synthetase activity in mouse liver extract ([5-3H]-dUMP tritium release); type: biochemical, CD-1 mouse
T1 construct: from tissue; host or cells: CD-1 mouse liver, supernatant of homogenate
Protocol: A CD-1 mouse (Charles River, Wilmington, Mass.) was sacrificed and the liver removed. Approximately one gram of the tissue was subsequently washed in DPBS (Mediatech, Herndon, Va.) and placed in 3 volumes of buffer H. The tissue was then homogenized with a Dounce homogenizer and subsequently sonicated by three 15-second bursts followed by 1 min on ice. The tissue extract was then centrifuged for 10 min at 4,000 g and the resultant supernatant was spun for 20 min at 7,000 g. Three equal aliquots of this supernatant were then added to 0.9 μCi aliquots of 2′-Deoxyuridine 5′-monophosphate, diammonium salt, [5-^3H]. At this point, 5-Fluoro-2′-deoxyuridine 5′-monothiophosphate was added to one aliquot, 5-Fluoro-2′-deoxyuridine 5′-monophosphate was added to a second aliquot, and one aliquot was left untreated. The three samples were incubated at 37° C. for 30 min and precipitated with charcoal. The resultant supernatant was centrifuged at 1,600 g for 10 min. Aliquots of each sample were then counted using a Beckman scintillation counter. Percent (%) inhibition is expressed as follows: […]
These assays determined the ability of either 10 nM FdUMP (phosphodiester substrate) or FdUMPS (phosphorothioate substrate) to inhibit thymidylate synthetase (TS) activity. The objective of this assay was to determine the ability of TS to convert [5-^3H]-dUMP to ^3H-H2O.

[2] = Stability of 1-mer conjugates in RPMI 1640+10% FCS (PAGE); type: in vitro ADME; conditions: up to 8 hrs, PAGE analysis
Protocol: Initially, the stability of the two neoglycoconjugates was assessed in RPMI 1640+10% FCS. […] In terms of cellular uptake, the po-linked conjugate at a dose of 1 μM was taken up rapidly in a progressive manner by Hep G2 cells in vitro to the extent of 24.75 pmoles/10^6 cells at 480 min. The rate of cellular uptake was next analyzed with respect to the administered dose of the conjugate. […] This amount doubled within the next 30 min and peaked at 25 pmoles/million cells at 480 min. […] While the administration of 4 μM conjugate led to a linear increase of conjugate uptake with respect to time, the rate at which cellular uptake occurred upon the administration of 8 μM conjugate rose sharply at 120 min.

Hep G2 cells = test: Cellular uptake of 5FU 1-mer conjugates by Hep G2 cells; type: cell-based, human; conditions: 1 μM, 480 min
Protocol: Hep G2 cells were passaged into 2 cm^2 wells and grown in RPMI 1640 medium, which was supplemented with L-glutamine (10-040, CV) to a density of 0.3×10^6 to 0.4×10^6 cells per well (48-well cluster plate, Costar, Cambridge, Mass.). […] Then, an aliquot of the medium was saved for scintillation counting and the remainder of the medium aspirated from the well. The cells were washed with D-PBS (2×0.5 ml), treated with 0.25% trypsin (37° C., 2 minutes; trypsin prepared in HBSS with 1.0 mM EDTA) and suspended in fresh growth medium containing 10% FCS. The suspended cells were layered over silicon oil (0.5 ml) in a 1.7 ml conical microcentrifuge tube and pelleted by centrifugation at 14,000 rpm (12,000 g) for 30 seconds. The supernatant was carefully decanted and the cell pellet was lysed with 100 μl of a solution containing 0.5% NP 40, 100 mM sodium chloride, 14 mM Tris/HCl and 30% acetonitrile. The amount of radioactivity, and by inference the amount of neoglycoconjugate or oligomer associated with the cell lysate, was determined by scintillation counting.

[3] = target: T2, thymidylate synthase (TS) (Homo sapiens, UniProt P04818); test: Thymidylate synthase activity in treated Hep G2 cells; type: cell-based; conditions: 1 μM, 96 hrs post treatment
T2 construct: endogenous in cells; host or cells: Hep G2
Protocol: Briefly, 10^5 Hep G2 or TSU cells were grown in culture for 48 h and then the medium was made to a concentration of 1 μM with either po 1-mer or unconjugated 5FdU. At regular intervals (24 hrs, 48 hrs, 72 hrs and 96 hrs) after treatment, the medium was removed and replaced with medium containing deoxyuridine/[^3H]-deoxyuridine mixtures. Cells were incubated at 37° C. for 30 min. Cell medium was then removed and precipitated with charcoal. The supernatant was then counted to determine the presence of [^3H]-H2O. The measurable release of [^3H] as [^3H]-H2O from deoxyuridine, 5′-monophosphate (dUMP) substrate reflects thymidylate synthase activity.
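Throughout, for % injected dose in BLADDER: male CD-1 mice given radiolabeled test agent intravenously, organs removed at each time point and dissolved, radioactivity per organ measured by scintillation counting with efficiency correction.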
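Throughout, for % injected dose in BLOOD: male CD-1 mice given radiolabeled test agent intravenously, organs removed at each time point and dissolved, radioactivity per organ measured by scintillation counting with efficiency correction.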
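Throughout, for % injected dose in HEART: male CD-1 mice given radiolabeled test agent intravenously, organs removed at each time point and dissolved, radioactivity per organ measured by scintillation counting with efficiency correction.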
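Throughout, for % injected dose in KIDNEY: male CD-1 mice given radiolabeled test agent intravenously, organs removed at each time point and dissolved, radioactivity per organ measured by scintillation counting with efficiency correction.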

T1 sequence (P07607 whole entry): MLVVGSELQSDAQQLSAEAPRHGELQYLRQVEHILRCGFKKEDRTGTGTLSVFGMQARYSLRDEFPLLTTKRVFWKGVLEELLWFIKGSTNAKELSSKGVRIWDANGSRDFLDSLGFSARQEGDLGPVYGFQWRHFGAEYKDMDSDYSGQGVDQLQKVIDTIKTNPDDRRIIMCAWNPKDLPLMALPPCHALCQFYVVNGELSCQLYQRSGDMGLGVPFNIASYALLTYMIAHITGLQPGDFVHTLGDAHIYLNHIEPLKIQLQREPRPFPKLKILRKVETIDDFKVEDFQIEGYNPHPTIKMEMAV
T2 sequence (P04818 2-313 limits assumed): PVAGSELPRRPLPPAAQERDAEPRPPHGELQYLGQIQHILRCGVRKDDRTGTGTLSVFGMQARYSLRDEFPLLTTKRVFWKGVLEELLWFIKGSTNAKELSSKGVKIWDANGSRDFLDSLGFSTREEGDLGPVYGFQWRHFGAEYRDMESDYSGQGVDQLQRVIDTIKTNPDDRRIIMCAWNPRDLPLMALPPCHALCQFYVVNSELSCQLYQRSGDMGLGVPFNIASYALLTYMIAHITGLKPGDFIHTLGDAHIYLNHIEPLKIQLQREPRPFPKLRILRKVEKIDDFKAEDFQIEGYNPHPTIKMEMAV

biological activity relative to FdUMPS ([1]; 10 nM): approximately twice | inhibition at 0.01 µM ([1]; 10 nM inhibitor, 1 μM dUMP, read-out: Percent Inhibition of Thymidylate Synthetase Activity): 48% | inhibition at 0.01 µM ([1]; 10 nM inhibitor, 10 μM dUMP, read-out: Percent Inhibition of Thymidylate Synthetase Activity): 28%
SMILES: O=c1[nH]c(=O)n([C@H]2C[C@H](O)[C@@H](COP(=O)(O)O)O2)cc1F [FdUMP, 5-Fluoro-2′-deoxyuridine 5′-monophosphate]

SMILES: CC(=O)N[C@H]1[C@H](OCCCCCCNC(=O)CC[C@H](NC(=O)CC[C@H](NC(=O)[C@H](Cc2ccc(O)cc2)NC(=O)C2CCC(CN3C(=O)CC(SCCCCCCOP(O)(=S)OC[C@H]4O[C@@H](n5cc(F)c(=O)[nH]c5=O)C[C@@H]4O)C3=O)CC2)C(=O)NCCCCCCO[C@@H]2O[C@H](CO)[C@H](O)[C@H](O)[C@H]2NC(C)=O)C(=O)NCCCCCCO[C@@H]2O[C@H](CO)[C@H](O)[C@H](O)[C@H]2NC(C)=O)O[C@H](CO)[C@H](O)[C@@H]1O (some centres unmarked) [ps 1-mer, YEE(ahGalNAc)3-SMCC-psFU]
stability in media containing 10% FCS [2]: stable | cellular uptake (Hep G2 cells): 24.98 pmoles/10^6 cells

SMILES: O=c1[nH]c(=O)n([C@H]2C[C@H](O)[C@@H](COP(O)(O)=S)O2)cc1F [FdUMPS, 5-Fluoro-2′-deoxyuridine 5′-monothiophosphate]
inhibition at 0.01 µM ([1]; read-out: Percent Inhibition of Thymidylate Synthetase Activity, 10 nM inhibitor, 1 μM dUMP): 27% | inhibition at 0.01 µM ([1]; read-out: Percent Inhibition of Thymidylate Synthetase Activity, 10 nM inhibitor, 10 μM dUMP): 13%

reduction of TS activity [3]: approximately 20% | % injected dose in BLADDER (15 MIN after tail vein i.v.): 0.91 ± 0.07% | % injected dose in BLOOD (15 MIN after tail vein i.v.): 0.03 ± 0.02% | % injected dose in HEART (15 MIN after tail vein i.v.): 0.21 ± 0.13% | % injected dose in KIDNEY (15 MIN after tail vein i.v.): 0.42 ± 0.28% | % injected dose in LG INT (15 MIN after tail vein i.v.): 1.09 ± 0.25% | % injected dose in LIVER (15 MIN after tail vein i.v.): 9.56 ± 3.83% | % injected dose in LUNGS (15 MIN after tail vein i.v.): 0.17 ± 0.07% | % injected dose in MUSCLE (15 MIN after tail vein i.v.): 9.29 ± 4.9% | % injected dose in SM INT (15 MIN after tail vein i.v.): 0.7 ± 0.04% | % injected dose in SPLEEN (15 MIN after tail vein i.v.): 0.11 ± 0.044% | % injected dose in LIVER (15 MIN after tail vein i.v., listed as unconjugated 5FdU): less than 10% | % injected dose in BLADDER (30 MIN after tail vein i.v.): 2.3 ± 1.58% | % injected dose in BLOOD (30 MIN after tail vein i.v.): .008 ± .0025% | % injected dose in HEART (30 MIN after tail vein i.v.): 0.03 ± .004% | % injected dose in KIDNEY (30 MIN after tail vein i.v.): 0.38 ± 0.3% | % injected dose in LG INT (30 MIN after tail vein i.v.): 0.37 ± 0.19% | % injected dose in LIVER (30 MIN after tail vein i.v.): 8.8 ± 1.23% | % injected dose in LUNGS (30 MIN after tail vein i.v.): 0.05 ± 0.006% | % injected dose in MUSCLE (30 MIN after tail vein i.v.): 3.43 ± 1.06% | % injected dose in SM INT (30 MIN after tail vein i.v.): 0.61 ± 0.36% | % injected dose in SPLEEN (30 MIN after tail vein i.v.): 0.19 ± 0.26% | % injected dose in BLADDER (60 MIN after tail vein i.v.): 2.99 ± 1.01% | % injected dose in BLOOD (60 MIN after tail vein i.v.): .007 ± .0023% | % injected dose in HEART (60 MIN after tail vein i.v.): 0.28 ± 0.11% | % injected dose in KIDNEY (60 MIN after tail vein i.v.): 0.84 ± 0.31% | % injected dose in LG INT (60 MIN after tail vein i.v.): 1.04 ± 0.2% | % injected dose in LIVER (60 MIN after tail vein i.v.): 4.35 ± 1.35% | % injected dose in LUNGS (60 MIN after tail vein i.v.): 0.98 ± 0.3% | % injected dose in MUSCLE (60 MIN after tail vein i.v.): 22.84% | % injected dose in SM INT (60 MIN after tail vein i.v.): 3.57 ± 1.3% | % injected dose in SPLEEN (60 MIN after tail vein i.v.): 0.57 ± 0.18% | % injected dose in BLADDER (240 MIN after tail vein i.v.): 0.010 ± .015% | % injected dose in BLOOD (240 MIN after tail vein i.v.): 0.56 ± 0.28% | % injected dose in HEART (240 MIN after tail vein i.v.): 0.32 ± 0.10% | % injected dose in KIDNEY (240 MIN after tail vein i.v.): 0.44 ± 0.12% | % injected dose in LG INT (240 MIN after tail vein i.v.): 1.61 ± 0.59% | % injected dose in LIVER (240 MIN after tail vein i.v.): 3.97 ± 0.37% | % injected dose in LUNGS (240 MIN after tail vein i.v.): 1.03 ± 0.39% | % injected dose in MUSCLE (240 MIN after tail vein i.v.): 46.56% | % injected dose in SM INT (240 MIN after tail vein i.v.): 4.19 ± 1.18% | % injected dose in SPLEEN (240 MIN after tail vein i.v.): 0.38 ± 0.04% | % injected dose in BLADDER (480 MIN after tail vein i.v.): .001 ± .0006% | % injected dose in BLOOD (480 MIN after tail vein i.v.): 0.23 ± 0.14% | % injected dose in HEART (480 MIN after tail vein i.v.): 0.06 ± .02% | % injected dose in KIDNEY (480 MIN after tail vein i.v.): 0.13 ± .044% | % injected dose in LG INT (480 MIN after tail vein i.v.): 0.35 ± 0.09% | % injected dose in LIVER (480 MIN after tail vein i.v.): 1.25 ± 0.33% | % injected dose in LUNGS (480 MIN after tail vein i.v.): 0.08 ± 0.04% | % injected dose in MUSCLE (480 MIN after tail vein i.v.): 7.9 ± 1.64% | % injected dose in SM INT (480 MIN after tail vein i.v.): 1.37 ± 0.7% | % injected dose in SPLEEN (480 MIN after tail vein i.v.): 0.09 ± 0.05%
SMILES: O=c1[nH]c(=O)n([C@H]2C[C@H](O)[C@@H](CO)O2)cc1F [5FdU, 5-fluoro-2′-deoxyuridine]
